Reference: the NIST ThermoML archive (doi:10.1021/je7003098)

Settings: for mass density: 101.33 kPa, Liquid, Pycnometric method; for surface tension liquid-gas: Ring tensiometer

CCCCCCCCCCCCCC[P+](CCCCCC)(CCCCCC)CCCCCC.O=S(=O)([N-]S(=O)(=O)C(F)(F)F)C(F)(F)F
Settings | mass density [kg/m3] | surface tension liquid-gas [mN/m]
298.15 K | 1050.1 | –
298.2 K | – | 33.08
303 K | – | 32.57
303.15 K | 1048.3 | –
308 K | – | 32.15
308.15 K | 1045.2 | –
313 K | – | 31.77
313.15 K | 1042 | –
318 K | – | 31.4
318.15 K | 1039.2 | –
323.15 K | 1035.6 | –
323.3 K | – | 31.09
327.9 K | – | 30.65
328.15 K | 1032.9 | –
332.9 K | – | 30.28
333.15 K | 1029.6 | –
338.9 K | – | 29.68
344.2 K | – | 29.45
349.8 K | – | 28.93

CCCCCCCCCC[N+](C)(C)C.O=S(=O)([N-]S(=O)(=O)C(F)(F)F)C(F)(F)F
Settings | mass density [kg/m3] | surface tension liquid-gas [mN/m]
298.15 K | 1226.3 | –
300.96 K | – | 35.42
302.95 K | – | 35.12
303.15 K | 1222.2 | –
307.75 K | – | 34.81
308.15 K | 1218.6 | –
312.28 K | – | 34.55
313.15 K | 1214.7 | –
318.08 K | – | 34.2
318.15 K | 1210.6 | –
323.15 K | 1206.3 | –
324.03 K | – | 33.71
328.15 K | 1204.7 | –
330.53 K | – | 33.36
333.15 K | 1200.3 | –
337.12 K | – | 32.82
342.53 K | – | 32.51
347.26 K | – | 32.23

CCCCCCCC[N+](C)(CCCCCCCC)CCCCCCCC.O=S(=O)([N-]S(=O)(=O)C(F)(F)F)C(F)(F)F
Settings | mass density [kg/m3] | surface tension liquid-gas [mN/m]
298.15 K | 1082.3 | –
299.46 K | – | 29.06
303.15 K | 1080.3 | –
303.25 K | – | 28.93
308.15 K | 1077.3 | –
310.18 K | – | 28.53
313.15 K | 1073.8 | –
313.77 K | – | 28.23
318.15 K | 1073.8 | –
318.67 K | – | 27.85
321 K | – | 27.63
323.15 K | 1067.2 | –
326.3 K | – | 27.18
328.15 K | 1063.9 | –
329.6 K | – | 27.01
333.15 K | 1061.1 | –
336.79 K | – | 26.69

CCCCCC[N+](C)(C)CCC.O=S(=O)([N-]S(=O)(=O)C(F)(F)F)C(F)(F)F
Settings | mass density [kg/m3] | surface tension liquid-gas [mN/m]
298.15 K | 1284.6 | –
300.1 K | – | 36.74
302 K | – | 36.58
303.1 K | – | 36.49
303.15 K | 1281.6 | –
304 K | – | 36.42
306 K | – | 36.25
308.1 K | – | 36.11
308.15 K | 1277.5 | –
312.3 K | – | 35.78
313.15 K | 1273.2 | –
315.2 K | – | 35.55
318 K | – | 35.33
318.15 K | 1269.9 | –
320.6 K | – | 35.14
322.6 K | – | 35.01
323.15 K | 1266 | –
328.15 K | 1266 | –
333.15 K | 1258.5 | –

CCCCCC[n+]1ccn(C)c1.O=S(=O)([N-]S(=O)(=O)C(F)(F)F)C(F)(F)F
Settings | surface tension liquid-gas [mN/m]
297.22 K | 35.98
301.22 K | 35.79
305.48 K | 35.54
309.14 K | 35.35
312.48 K | 35.15
316.28 K | 35.03
319.87 K | 34.84
323.57 K | 34.63
327.48 K | 34.45
331.24 K | 34.26
334.91 K | 34.07
340.92 K | 33.76
346.42 K | 33.44

CCn1cc[n+](C)c1.O=S(=O)([N-]S(=O)(=O)C(F)(F)F)C(F)(F)F
Settings | surface tension liquid-gas [mN/m]
298.7 K | 41.62
302.05 K | 41.38
305.74 K | 41.19
309.16 K | 41.02
312.6 K | 40.87
316.2 K | 40.67
319.33 K | 40.5
322.63 K | 40.39
326.13 K | 40.19
331.02 K | 39.94

CCCCn1cc[n+](C)c1.F[P-](F)(F)(F)(F)F [1-butyl-3-methylimidazolium hexafluorophosphate]
Settings | surface tension liquid-gas [mN/m]
298.15 K | 47.92
301.32 K | 47.71
305.79 K | 47.48
309.6 K | 47.29
315.44 K | 46.92
319.95 K | 46.55
325.06 K | 46.15
328.68 K | 46.04
332.22 K | 45.81
335.61 K | 45.41

CCn1cc[n+](C)c1.O=S(=O)([O-])C(F)(F)F [1-ethyl-3-methylimidazolium trifluoromethanesulfonate]
Settings | surface tension liquid-gas [mN/m]
296.28 K | 44.46
300.79 K | 44.36
304.95 K | 44.2
308.14 K | 44.07
312.41 K | 43.9
317.15 K | 43.81
321.93 K | 43.64
328.68 K | 43.37
333.64 K | 43.15
337.82 K | 42.99
343.49 K | 42.82
347.91 K | 42.62
353.56 K | 42.49

CCCC[N+](C)(C)C.O=S(=O)([N-]S(=O)(=O)C(F)(F)F)C(F)(F)F [butyltrimethylammonium bis(trifluoromethylsulfonyl)imide]
Settings | mass density [kg/m3] | surface tension liquid-gas [mN/m]
298.15 K | 1374.7 | –
298.35 K | – | 38.05
302.33 K | – | 37.9
303.15 K | 1368.6 | –
306.15 K | – | 37.8
308.15 K | 1365.6 | –
309.93 K | – | 37.69
313.15 K | 1361.4 | –
314.79 K | – | 37.48
318.15 K | 1357.3 | –
320.39 K | – | 37.28
323.15 K | 1353.7 | –
326.4 K | – | 37.09
328.15 K | 1349.7 | –
330.16 K | – | 36.91
333.15 K | 1343.9 | –
335.64 K | – | 36.68
340.58 K | – | 36.5

CCCCCC[N+](C)(C)C.O=S(=O)([N-]S(=O)(=O)C(F)(F)F)C(F)(F)F [hexyltrimethylammonium bis[(trifluoromethyl)sulfonyl]imide]
Settings | mass density [kg/m3] | surface tension liquid-gas [mN/m]
298.15 K | 1310.6 | –
300.35 K | – | 35.88
302.35 K | – | 35.71
303.15 K | 1307.8 | –
304.25 K | – | 35.57
307.65 K | – | 35.32
308.15 K | 1304 | –
311.05 K | – | 35.09
313.15 K | 1299.5 | –
314.75 K | – | 34.86
318.15 K | 1295.7 | 34.64
322.55 K | – | 34.36
323.15 K | 1292.1 | –
326.25 K | – | 34.14
328.15 K | 1287.9 | –
331.35 K | – | 33.86
333.15 K | 1283.9 | –
333.35 K | – | 33.77

CCCCCCCCCCCCCC[P+](CCCCCC)(CCCCCC)CCCCCC.N#C[N-]C#N [tetradecyl(trihexyl)phosphonium dicyanamide]
Settings | mass density [kg/m3] | surface tension liquid-gas [mN/m]
295.06 K | – | 35.22
298.15 K | 920.9 | –
299.35 K | – | 34.85
302.95 K | – | 34.58
303.15 K | 917.3 | –
305.04 K | – | 34.45
308.15 K | 916.3 | –
310.4 K | – | 34.06
313.15 K | 913.1 | –
314.39 K | – | 33.8
318.15 K | 910.1 | –
318.38 K | – | 33.5
322.47 K | – | 33.24
323.15 K | 907.5 | –
326.14 K | – | 32.94
327.42 K | – | 32.61
328.15 K | 905 | –
333.02 K | – | 32.2
333.15 K | 902.4 | –
338.6 K | – | 31.66
343.13 K | – | 31.33
348.47 K | – | 31.09

CCCCCCCCCCCCCC[P+](CCCC)(CCCC)CCCC.CCCCCCCCCCCCc1ccccc1S(=O)(=O)[O-] [tributyl(tetradecyl)phosphonium 2-dodecylbenzenesulfonate]
Settings | mass density [kg/m3]
298.15 K | 938.4
303.15 K | 937.1
308.15 K | 933.7
313.15 K | 931.1
318.15 K | 928.4
323.15 K | 925.4
328.15 K | 922.8
333.15 K | 920.1

CCCC[P+](CC)(CCCC)CCCC.CCOP(=O)([O-])OCC [tributylethylphosphonium diethylphosphate]
Settings | mass density [kg/m3] | surface tension liquid-gas [mN/m]
296.66 K | – | 33.6
298.15 K | 997.8 | –
302.18 K | – | 33.29
303.15 K | 995.7 | –
307.24 K | – | 33.14
308.15 K | 992.8 | –
312.34 K | – | 32.82
313.15 K | 989.7 | –
318.15 K | 985.8 | –
318.36 K | – | 32.24
323.15 K | 982.6 | –
323.59 K | – | 31.62
328.15 K | 979.5 | –
329.67 K | – | 31.14
333.15 K | 975.8 | –
336.36 K | – | 30.66
343.4 K | – | 30.15
347.75 K | – | 29.82
350.86 K | – | 29.59

CCCCCC[N+](CC)(CC)CC.O=S(=O)([N-]S(=O)(=O)C(F)(F)F)C(F)(F)F [triethylhexylammonium bis((trifluoromethyl)sulfonyl)imide]
Settings | mass density [kg/m3] | surface tension liquid-gas [mN/m]
298.15 K | 1279.3 | –
299.54 K | – | 35.17
302.65 K | – | 34.9
303.15 K | 1275.4 | –
307.05 K | – | 34.45
308.15 K | 1271.9 | –
313.15 K | 1267.6 | –
313.73 K | – | 33.88
318.15 K | 1264.4 | –
319.84 K | – | 33.49
323.15 K | 1260.8 | –
324.94 K | – | 32.98
328.15 K | 1257.4 | –
329.34 K | – | 32.72
333.15 K | 1253 | –
335.04 K | – | 32.47
341.93 K | – | 31.98
347.11 K | – | 31.45

CCCCCCCCCCCCCC[P+](CCCCCC)(CCCCCC)CCCCCC.[Cl-] [trihexyl(tetradecyl)phosphonium chloride]
Settings | mass density [kg/m3] | surface tension liquid-gas [mN/m]
297.99 K | – | 33.62
298.15 K | 882.6 | –
302.94 K | – | 33.15
303.15 K | 880.1 | –
307.4 K | – | 32.72
308.15 K | 877.9 | –
312.09 K | – | 32.3
313.15 K | 875.4 | –
315.84 K | – | 32.01
318.15 K | 873.1 | –
319.49 K | – | 31.74
323.15 K | 869.4 | –
323.95 K | – | 31.43
327.96 K | – | 31.15
328.15 K | 866.9 | –
332.81 K | – | 30.76
333.15 K | 864.4 | –
337.27 K | – | 30.42
342.09 K | – | 30
347.68 K | – | 29.55
